Measured values as given in the OPERA property sets (Mansouri et al. 2018).

| Structure (SMILES) | logP |
| --- | --- |
| Fc1ccccc1C1OCC2ON=C(c3ccccc3)C2CO1 (stereo unspecified) | 2.35 |
| CNC(=O)N(C)C(=O)Nc1cc([N+](=O)[O-])ccc1F | 2.3 |
| CNC(=O)N(C)C(=O)Nc1cc(C(C)C)ccc1F | 3.53 |
| CCCCCCCCn1nnnc1Oc1ccc(NC(=O)N(C)C)cc1 | 3.96 |
| C#CCn1nnnc1Oc1ccc(NC(=O)N(C)C)cc1 | 1 |
| C#CCn1nnc(Oc2ccc(NC(=O)N(C)C)cc2)n1 | 1.65 |
| CNC(=O)N(C)C(=O)Nc1cc(-c2ccccc2)ccc1F | 3.78 |
| CN(C)C(=O)Nc1ccc(Oc2nnn(C3CCCCC3)n2)cc1 | 2.67 |
| CNC(=O)N(C)C(=O)Nc1cc(S(=O)(=O)C(C)C)ccc1F | 1.87 |
| CCc1ccc(F)c(NC(=O)N(C)C(=O)NC)c1 | 3.23 |
| CN(C)C(=O)Nc1ccc(Oc2nnn(C(C)(C)C)n2)cc1 | 2.08 |
| CN(C)C(=O)Nc1ccc(Oc2nnnn2C(C)(C)C)cc1 | 1.65 |
| CNC(=O)N(C)C(=O)Nc1ccccc1F | 2.12 |
| CCn1nnnc1Oc1ccc(NC(=O)N(C)C)cc1Cl | 1.5 |
| CNC(=O)N(C)C(=O)Nc1cc(C(C)=O)ccc1F | 1.82 |
| CNC(=O)N(C)C(=O)Nc1cc(OC)ccc1F | 2.14 |
| CN(C)C(=O)Nc1ccc(Oc2nnnn2C(C)(C)C)c(Cl)c1 | 2.25 |
| CNC(=O)N(C)C(=O)Nc1cc(C(C)(C)C)ccc1F | 3.96 |

| Structure (SMILES) | logP |
| --- | --- |
| CNC(=O)N(C)C(=O)Nc1cc(Cc2ccccc2)ccc1F | 3.9 |
| c1ccc(C2=NOC3COC(c4ccccc4)OCC23)cc1 (stereo unspecified) | 3.42 |
| CN(C)C(=O)Nc1ccc(Oc2nnn(CCC#N)n2)cc1 | 0.28 |
| CC(C)n1nnc(Oc2ccc(NC(=O)N(C)C)cc2)n1 | 1.45 |
| CNC(=O)N(C)C(=O)Nc1cc(C(=O)OC)ccc1F | 2.28 |
| CCC(CC)c1ccc(F)c(NC(=O)N(C)C(=O)NC)c1 | 4.46 |
| CN(C)C(=O)Nc1ccc(Oc2nnn(C)n2)cc1 | 0.63 |
| CNC(=O)N(C)C(=O)Nc1cc(C2CCCCC2)ccc1F | 4.58 |
| CNC(=O)N(C)C(=O)Nc1cc(F)ccc1F | 2.4 |
| Cc1ccccc1C1OCC2ON=C(c3ccccc3)C2CO1 (stereo unspecified) | 2.72 |
| CCn1nnc(Oc2ccc(NC(=O)N(C)C)cc2)n1 | 1.1 |
| C=CCn1nnc(Oc2ccc(NC(=O)N(C)C)cc2)n1 | 1.65 |
| CNC(=O)N(C)C(=O)Nc1cc(I)ccc1F | 3.58 |
| CCCCCCCCn1nnc(Oc2ccc(NC(=O)N(C)C)cc2)n1 | 4.4 |
| CN(C)C(=O)Nc1ccc(Oc2nnn(Cc3ccccc3)n2)cc1 | 2.25 |
| CN(C)C(=O)Nc1ccc(Oc2nnnn2Cc2ccccc2)cc1 | 1.7 |
| CNC(=O)N(C)C(=O)Nc1cc(OC(C)C)ccc1F | 3.08 |
| CCOC(=O)Cn1nnnc1Oc1ccc(NC(=O)N(C)C)cc1 | 0.7 |
